Assays:
[1] = system: PD1 signal sequence plus 10 amino acids fused to Gaussia Luciferase (PD1-ss+10aa/Gaussia Luciferase); experiment: Dox Induced PD1-ss-Gluc Assay; format: cell-based; details: 24 hr, Dox inducible, 293FRT/TO cells; read-out: 24 hr Dox Inducible PD1ssGluc 293FRT/TO: Mean IC50
Summary of the method: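 Compound dilutions in DMSO/media containing doxycycline were applied to a stable, inducible 293 T-REx line carrying the luciferase fusion, then incubated at 37 °C, 5% CO2. Where stereochemistry is not drawn, values relate to isomer mixtures.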

[2] = system: full length TNFα (amino acids 1-233) fused to Gaussia Luciferase; experiment: Dox Induced TNFα-FL-Gluc Assay; format: cell-based; details: 24 hr, Dox inducible, 293FRT/TO cells; read-out: 24 hr Dox Inducible TNFaFLGluc 293FRT/TO: Mean IC50
Summary of the method: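 Compounds diluted in DMSO/medium with doxycycline were incubated at 37° C, 5% CO2 with 293 T-REx cells stably carrying a Tet-regulated TNFα(1-233)-Gaussia luciferase construct. Data for structures drawn without stereochemistry refer to stereoisomer mixtures.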

[3] = system: full length IL-2 (amino acids 1-153) fused to Gaussia Luciferase; experiment: Dox Induced IL2-FL-Gluc Assay; format: cell-based; details: 24 hr, Dox inducible, 293FRT/TO cells; read-out: 24 hr Dox Inducible IL2FLGluc 293FRT/TO: Mean IC50
Summary of the method: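 Compounds in DMSO/media with doxycycline were added to cells plated the previous day and incubated at 37° C, 5% CO2. Cells: stable Flp-In 293 T-REx line, Dox-regulated expression of IL-2 (aa 1-153) fused at its C-terminus to Gaussia luciferase.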

[4] = system: multiple myeloma cell line NCl-H929; experiment: H929 Cell Viability Assay; format: cell-based, human; details: Homo sapiens, NCI-H929, 48 h, H929, Celltiter-Glo
Summary of the method: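 Viability was determined by CellTiter-Glo luminescence after a 48 h, 37 °C exposure of NCI-H929 cells to serial compound dilutions in medium containing 10% FBS. Where stereochemistry is not shown, values refer to a mix of stereoisomers.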

[5] = system: multiple myeloma cell line U266B1; experiment: U266 Cell Viability Assay; format: cell-based, human; details: Homo sapiens, U-266; 48 hr, U266, Celltiter-Glo
Summary of the method: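 Viability was measured by CellTiter-Glo luminescence after 48 h compound exposure at 37° C, 5% CO2. The cells were U266B1 multiple myeloma cells grown in RPMI 1640 plus 10% FBS. Where stereochemistry is not shown, values apply to the stereoisomer mixture.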

[6] = In Vitro Microsome Stability Assay (human); format: in vitro ADME; details: human liver microsomes, 30 min w/ NADPH
Summary of the method: (§1)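 Species liver microsomes in potassium phosphate buffer were preincubated at 37 °C for 3–5 min with test compound (added from 0.25 mM DMSO stock), then started with NADPH. Samples at 0 and 30 min were quenched with acetonitrile containing internal standard and analysed by LC-MS/MS; % remaining at 30 min used analyte/IS AUC ratios relative to t=0.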

[7] = In Vitro Microsome Stability Assay (mouse); format: in vitro ADME; details: mouse liver microsomes, 30 min w/ NADPH
Summary of the method: as §1

[8] = In Vitro Microsome Stability Assay (rat); format: in vitro ADME; details: rat liver microsomes, 30 min w/ NADPH
Summary of the method: as §1

[9] = In Vitro Microsome Stability Assay (monkey); format: in vitro ADME; details: monkey liver microsomes, 30 min w/ NADPH
Summary of the method: as §1

SMILES	IC50 [1] [µM]	IC50 [2] [µM]	IC50 [3] [µM]	EC50 [4] [µM]	EC50 [5] [µM]	Liver Microsome Stability-% Left after 30 min w/ NADPH (%) Human [6] [%]	Liver Microsome Stability-% Left after 30 min w/ NADPH (%) Mouse [7] [%]	Liver Microsome Stability-% Left after 30 min w/ NADPH (%) Rat [8] [%]	Liver Microsome Stability-% Left after 30 min w/ NADPH (%) Monkey [9] [%]
COc1ccccc1N1CCN(S(=O)(=O)N2CCCN(CC3CCCCC3)CCCN(S(=O)(=O)c3ccc(N(C)C)cc3)C[C@H](C)C2)CC1 [A154, 4-{[(3S)-9-(cyclohexylmethyl)-5-{[4-(2-methoxyphenyl)piperazin-1-yl]sulfonyl}-3-methyl-1,5,9-triazacyclododecan-1-yl]sulfonyl}-N,N-dimethylaniline]	0.0149	0.504	0.0587	0.749	> 25	7.33	17.5	12.3	10.2
Cc1cccc(CN2CCCN(S(=O)(=O)c3ccc(N(C)C)cc3)C[C@H](C)CN(S(=O)(=O)N3CCc4cc(Cl)ccc4C3)CCC2)c1 [A156, 4-{[(3S)-5-[(6-chloro-1,2,3,4-tetrahydroisoquinolin-2-yl)sulfonyl]-3-methyl-9-[(3-methylphenyl)methyl]-1,5,9-triazacyclododecan-1-yl]sulfonyl}-N,N-dimethylaniline]	0.0925	1.83	0.207	3.71	> 25	81.3	75.6	82.1	80.6
C[C@H]1CN(S(=O)(=O)c2ccc(N(C)C)cc2)CCCN(CC2CCCC2)CCCN(S(=O)(=O)N2CCc3cc(Cl)ccc3C2)C1 [A157, 4-{[(3S)-5-[(6-chloro-1,2,3,4-tetrahydroisoquinolin-2-yl)sulfonyl]-9-(cyclopentylmethyl)-3-methyl-1,5,9-triazacyclododecan-1-yl]sulfonyl}-N,N-dimethylaniline]	0.0233	0.584	0.0774	0.858	> 25	21.1	23.3	32.2	27.3
C[C@H]1CN(CC2CCCCC2)C[C@H](C)CN(S(=O)(=O)N2CCc3cc(Cl)ccc3C2)C[C@@H](C)CN(S(=O)(=O)c2ccc(N(C)C)cc2)C1 [A160, 4-{[(3S,7S,11S)-5-[(6-chloro-1,2,3,4-tetrahydroisoquinolin-2-yl]sulfonyl]-9-(cyclohexylmethyl)-3,7,11-trimethyl-1,5,9-triazacyclododecan-1-yl]sulfonyl}-N,N-dimethylaniline]	0.153	10.7	0.453	> 25	> 25	71.8	61.3	51.1	46.1
Cc1cc(F)ccc1N1CC2(C1)CN(S(=O)(=O)N1CCCN(CC3CCCCC3)CCCN(S(=O)(=O)c3ccc(N(C)C)cc3)C[C@H](C)C1)C2 [A161, 4-{[(3S)-9-(cyclohexylmethyl)-5-{[6-(4-fluoro-2-methylphenyl)-2,6-diazaspiro[3.3]heptan-2-yl]sulfonyl}-3-methyl-1,5,9-triazacyclododecan-1-yl]sulfonyl}-N,N-dimethylaniline]	0.577	> 25	0.726	> 25	> 25	20.2	26.5	27.3	16.7
Cc1cc(F)ccc1N1CCN(S(=O)(=O)N2CCCN(CC3CCCCC3)CCCN(S(=O)(=O)c3ccc(N(C)C)cc3)C[C@H](C)C2)[C@@H](C)C1 [A162, 4-{[(3S)-9-(cyclohexylmethyl)-5-{[(2 S)-4-(4-fluoro-2-methylphenyl)-2-methylpiperazin-1-yl]sulfonyl}-3-methyl-1,5,9-triazacyclododecan-1-yl]sulfonyl}-N,N-dimethylaniline]	0.101	6.26	0.201	> 25	> 25	70.5	62.5	69.6	60.3
C[C@@H]1CN(CC2CCCCC2)C[C@@H](C)CN(S(=O)(=O)N2CCc3cc(Cl)ccc3C2)C[C@@H](C)CN(S(=O)(=O)c2ccc(N(C)C)cc2)C1 [A164]	0.455	> 25	0.974	> 25	> 25	64.8	69.0	57.9	40.9
C[C@H]1CN(S(=O)(=O)c2ccc(N(C)C)cc2)CCCN(CCC(F)(F)F)CCCN(S(=O)(=O)N2CCc3cc(Cl)ccc3C2)C1 [A165, 4-{[(3S)-5-[(6-chloro-1,2,3,4-tetrahydroisoquinolin-2-yl)sulfonyl]-3-methyl-9-(3,3,3-trifluoropropyl)-1,5,9-triazacyclododecan-1-yl]sulfonyl}-N,N-dimethylaniline]	0.131	1.86	0.294	4.09	> 25	2.23	14.9	11.9	12.8
Cc1cccc2c1CCN(S(=O)(=O)N1CCCN(CC3CCCCC3)CCCN(S(=O)(=O)c3ccc(N(C)C)cc3)C[C@H](C)C1)C2 [A166, 4-{[(3S)-9-(cyclohexylmethyl)-3-methyl-5-[(5-methyl-1,2,3,4-tetrahydroisoquinolin-2-yl)sulfonyl]-1,5,9-triazacyclododecan-1-yl]sulfonyl}-N,N-dimethylaniline]	0.0167	0.278	0.0302	0.548	> 25	14.0	26.4	31.3	18.7
C[C@H]1CN(S(=O)(=O)c2ccc(N(C)C)cc2)CCCN(CC(F)(F)F)CCCN(S(=O)(=O)N2CCc3cc(Cl)ccc3C2)C1 [A167, 4-{[(3S)-5-[(6-chloro-1,2,3,4-tetrahydroisoquinolin-2-yl)sulfonyl]-3-methyl-9-(2,2,2-trifluoroethyl)-1,5,9-triazacyclododecan-1-yl]sulfonyl}-N,N-dimethylaniline]	0.201	2.66	0.412	6.5	> 25	5.68	18.3	9.19	73
C[C@H]1CN(S(=O)(=O)c2cccc(N(C)C)c2)CCCN(CC2CCCCC2)CCCN(S(=O)(=O)N2CCc3cc(Cl)ccc3C2)C1 [A168, 3-{[(3S)-5-[(6-chloro-1,2,3,4-tetrahydroisoquinolin-2-yl)sulfonyl]-9-(cyclohexylmethyl)-3-methyl-1,5,9-triazacyclododecan-1-yl]sulfonyl}-N,N-dimethylaniline]	1.49	> 25	1.14	> 25	> 25	25.7	42	42.1	73
